Holding throughout (format): cell-based
The nature of data set [1]: Cytotoxicity in PHA-stimulated human PBM cells. The conditions noted are these: uninfected PHA-stimulated PBM cells.
The nature of another data set: in vitro. The conditions noted are these: human, CEM cells (T-lymphoblastoid cell line).
Another data set has as its system HIV-1LAI. Briefly: Anti-HIV activity against HIV-1LAI in human PBM cells. The conditions noted are these: HIV-1LAI in PBM cells.
The nature of data set [2]: Cytotoxicity in Vero cells. The conditions noted are these: African green monkey, Vero cells (kidney).

Data on 16 compounds can be found in PMC7734618 (Bioorganic & medicinal chemistry, 2008).

SMILES strings stand for the structures. Where a name gives a salt, the structure may show the parent alone.

As to `CC(=O)OC[C@@H]1OC[C@H](n2cc(C)c(=O)[nH]c2=O)O1` [Compound 1, Dioxolane thymine-5′-O-acetic ester], in data set [1], the IC50 at 4 days is greater than 100 µM.
Take `CCCCC(=O)OC[C@@H]1OC[C@H](n2cc(C)c(=O)[nH]c2=O)O1` [Compound 2, Dioxolane thymine-5′-O-valeric ester]: the 50% inhibitory concentration (IC50) at 3 days in “in vitro” was greater than 100 µM. This compound also came in with an IC50 at 4 days in data set [1] greater than 100 µM.
Compound `CCCCCCCC(=O)OC[C@@H]1OC[C@H](n2cc(C)c(=O)[nH]c2=O)O1` [Compound 3, Dioxolane thymine-5′-O-octanotic ester] gave a half-inhibitory concentration (IC50) at 3 days in “in vitro” greater than 100 µM. Also, in data set [1], the concentration for half-maximal inhibition (IC50) at 4 days was greater than 100 µM.
Turning to `CCCCCCCCCCCC(=O)OC[C@@H]1OC[C@H](n2cc(C)c(=O)[nH]c2=O)O1` [Compound 4, Dioxolane thymine-5′-O-dodecanoic ester], the IC50 at 3 days in “in vitro” was greater than 100 µM. The concentration for half-maximal inhibition (IC50) at 4 days in data set [1] was greater than 100 µM.
The compound `CCCCCCCCCCCCCCCC(=O)OC[C@@H]1OC[C@H](n2cc(C)c(=O)[nH]c2=O)O1` [Compound 5, Dioxolane thymine-5′-O-palmitic ester] came in with an IC50 at 3 days in “in vitro” greater than 100 µM. The compound also came in with an IC50 at 4 days in data set [1] greater than 100 µM.
Take `Cc1cn([C@H]2CO[C@@H](COC(=O)C(C)(C)C)O2)c(=O)[nH]c1=O` [Compound 6, Dioxolane thymine-5′-O-pivalic ester]: the half-maximal inhibitory concentration (IC50) at 3 days in “in vitro” is greater than 100 µM. Also, the concentration for half-maximal inhibition (IC50) at 4 days in data set [1] was greater than 100 µM.
With `Cc1cn([C@H]2CO[C@@H](COC(=O)C3CC3)O2)c(=O)[nH]c1=O` [Compound 7, Dioxolane thymine-5′-O-cyclopropanecarboxylic ester], in “in vitro”, the half-maximal inhibitory concentration (IC50) at 3 days is greater than 100 µM. Further, in data set [1], the IC50 at 4 days was greater than 100 µM.
For the compound `Cc1cn([C@H]2CO[C@@H](COC(=O)C3CCCCC3)O2)c(=O)[nH]c1=O` [Compound 8, Dioxolane thymine-5′-O-cyclohexanecarboxylic ester], the half-maximal inhibitory concentration (IC50) at 3 days in “in vitro” was greater than 100 µM. Further, the IC50 at 4 days in data set [1] is greater than 100 µM.
In the case of `Cc1cn([C@H]2CO[C@@H](COCOC(=O)C(C)(C)C)O2)c(=O)[nH]c1=O` [Compound 9, Dioxolane thymine-5′-O-pivaloyloxymethyl ether], the “Anti-HIV activity compared with parent drug DOT (in words)” value with HIV-1LAI is on record as “slightly reduced antiviral activity”. Moreover, in “in vitro”, the half-maximal inhibitory concentration (IC50) at 3 days was greater than 100 µM. The compound further showed a half-maximal inhibitory concentration (IC50) at 4 days in data set [1] greater than 100 µM.
Regarding `Cc1cn([C@H]2CO[C@@H](COC(=O)CN)O2)c(=O)[nH]c1=O` [Compound 11, Dioxolane thymine-5′-O-glycyl ester hydrochloride], in “in vitro”, the IC50 at 3 days was greater than 100 µM. In addition, the concentration for half-maximal inhibition (IC50) at 4 days in data set [1] is greater than 100 µM.
On to `Cc1cn([C@H]2CO[C@@H](COC(=O)[C@H](C)N)O2)c(=O)[nH]c1=O` [Compound 13, Dioxolane thymine-5′-O-l-alanyl ester hydrochloride], for which the IC50 at 3 days in “in vitro” is greater than 100 µM. The compound further yielded a half-inhibitory concentration (IC50) at 4 days in data set [1] greater than 100 µM.
`Cc1cn([C@H]2CO[C@@H](COC(=O)[C@@H](N)Cc3ccccc3)O2)c(=O)[nH]c1=O` [Compound 14, Dioxolane thymine-5′-O-l-phenylalanyl ester hydrochloride] displayed an IC50 at 3 days in “in vitro” greater than 100 µM. Besides, the concentration for half-maximal inhibition (IC50) at 2 days in data set [2] is greater than 100 µM. For the same compound, in data set [1], the IC50 at 4 days is greater than 100 µM.
`Cc1cn([C@H]2CO[C@@H](COC(=O)[C@H](N)Cc3ccccc3)O2)c(=O)[nH]c1=O` [Compound 15, Dioxolane thymine-5′-O-d-phenylalanyl ester hydrochloride] returned an IC50 at 3 days in the data set “in vitro” greater than 100 µM. Also, the concentration for half-maximal inhibition (IC50) at 2 days in data set [2] is greater than 100 µM. This compound yielded an IC50 at 4 days in data set [1] greater than 100 µM.
As to `Cc1cn([C@H]2CO[C@@H](COC(=O)[C@@H](N)C(C)C)O2)c(=O)[nH]c1=O` [Compound 16, Dioxolane thymine-5′-O-l-valyl ester hydrochloride], the 50% inhibitory concentration (IC50) at 3 days in “in vitro” is greater than 100 µM. Moreover, the IC50 at 2 days in data set [2] was greater than 100 µM. The same compound displayed a half-maximal inhibitory concentration (IC50) at 4 days in data set [1] greater than 100 µM.
Take `Cc1cn([C@H]2CO[C@@H](COC(=O)[C@H](N)C(C)C)O2)c(=O)[nH]c1=O` [Compound 17, Dioxolane thymine-5′-O-d-valyl ester hydrochloride]: the IC50 at 3 days in “in vitro” was greater than 100 µM. The compound further yielded an IC50 at 2 days in data set [2] greater than 100 µM. The same compound returned an IC50 at 4 days in data set [1] greater than 100 µM.
Consider `Cc1cn([C@H]2CO[C@@H](COC(=O)[C@@H](N)CC(C)C)O2)c(=O)[nH]c1=O` [Compound 18, Dioxolane thymine-5′-O-l-leucinyl ester hydrochloride], for which the IC50 at 3 days in “in vitro” is greater than 100 µM. In data set [1], this compound yielded an IC50 at 4 days greater than 100 µM.
